Values quoted from earlier work, collected in US20230404964A1, “COMBINATION FOR REDUCING OXIDATIVE STRESS IN THE BODY AND MAINTAINING LIVER FUNCTIONS” (priority 2020, published 2023).
“And” between values parts separate entries of the source, which are not always exact repeats. Equal values may be shown once.

System: HUVEC cells
Conditions: pretreatment with DHM 37.5-300 μmol, hydrogen peroxide

SMILES: O=C1c2c(O)cc(O)cc2O[C@H](c2cc(O)c(O)c(O)c2)[C@H]1O [DHM, Dihydromyricetin]
- decrease in apoptosis (depending on the dose): 14.83% and 11.1% and 9.12%
- MDA concentration (in words): decrease in the MDA concentration
- production of reactive oxygen species (in words): significant decrease in the production of reactive oxygen species
